Experimental data as given in patent EP0201359A2, “Use of phthalide isoquinoline derivatives for treatments inhibiting the formation of lipid peroxides” (MITSUBISHI KASEI CORPORATION, priority 1985, dated 1986).
Like-named read-outs stand apart in the source and are kept apart here. One block for each compound: values may come before it.

How the values were obtained:
[1] = test system: Mast cells; experiment: Histamine release from mast cells stimulated with compound 48/80 or ascarid protein; type: cell-based, male Wistar rats; settings: compound 48/80 and protein from epidermis of ascarid as stimulants
Experimental: Histamine release can be experimentally investigated in vitro with use of mast cells derived from rat's abdominal cavity. Thus, after the mast cells are pre-incubated in the presence of an IgE antibody, e.g. IgE antibody prepared by sensitization of rabbit with a protein derived from the epidermis of ascarid, addition of a corresponding IgE antigen, e.g. the protein prepared from the epidermis of ascarid, induces the release of histamine from the mast cells. Such release of histamine can also be induced by addition of an artificial stimulant compound 48/80, ATP (adenosine triphosphate) to mast cells.
Mast cells were collected from the abdominal cavity of male Wistar rats of 400 - 450 g in body weight in a conventional manner. After pre-incubation of 5 x 10^4 cells in Krebs-Ringer buffer, pH 7.4, for 10 minutes, 0,1 µg/ml of the compound 48/80 was added. After incubation for an additional 10 minutes, the cells were removed by centrifugation at 3,000 rpm for 5 minutes. Thereafter, histamine in the supernatant was quantitatively measured according to Shore's method described in J. Phar. […] As a control, total amount of histamine contained in mast cell was measured. A ratio of the amount of histamine released after the treatment with the compound 48/80 as a stimulant to the total amount of histamine as the control was calculated according to the following equation : [formula]

[2] = test system: isolated hepatocytes; experiment: Formation of lipid peroxide in isolated hepatocytes after addition of carbon tetrachloride; type: cell-based, rat; settings: Concentration 10 µM, carbon tetrachloride 5 mM; for inhibition at 10 µM: Rattus norvegicus, Hepatocyte, 3 hours, read-out: Free MDA (3 hours) % Inhibition
Experimental: Lipid peroxide was produced in vitro in cell membranes by using hepatocytes isolated by means of collagenase.
The isolated hepatocytes were prepared by the method of collagenase perfusion from the liver of rat which was fed for one week with phenobarbital in drinking water. The isolated hepatocytes (1 x 10^6 cells/ml Hanks solution containing 1 % BSA and 10 mM HEPES, pH 7.4) were taken into a conical flask in which test compounds were placed. Then, the cells were incubated at 37°C and produced the lipid peroxide by the addition of carbon tetrachloride (5 mM).
The activity of the compounds shown in Table I and vitamin E to inhbit the formation of the lipid peroxide was measured. The amount of the lipid peroxide was determined in accordance with the method of Mihara et al. (Yakugaku Zasshi; Journal of the Pharmaceutical Society of Japan, Vol. 102, No. 7, 670-677 (1982)) and expressed in terms of inhibition rate (%) of the formation of lipid peroxide after the addition of carbon tetrachloride.

[3] = test system: rat polymorphonuclear leukocytes (PMN); experiment: Production of O2- by polymorphonuclear leukocytes stimulated with PMA (cytochrome C reduction); type: cell-based; settings: Leukocyte, PMA 125 ng/ml; for inhibition at 3.3 µM: Conc. 3.3 µM; for inhibition at 10 µM: Conc. 10.0 µM; for inhibition at 33 µM: Conc. 33.0 µM
Experimental: In 20 hours after injection of 10 ml of 1 % casein into the abdominal cavity of a […], many polymorphonuclear leukocytes appear in the cavity. An activity of the polymorphonuclear leukocytes can be determined in an in vitro system. Briefly stated, addition of phorbol myristate acetate, PMA, as a stimulant into a test tube containing a buffer and the polymorphonuclear leukocytes induces the production of O2^- by the polymorphonuclear leukocytes. […] See Wei Hsueh et al., Nature, 290 (23), 710-713 (1981).
Thus, measurements were carried out using rat polymorphonuclear leukocytes (PMN) induced by 1 % casein and PMA (phorbol-12-myristate-13-acetate) as a stimulant. First, 1,830 µl of phosphate buffer, pH 7,4, 50 µl of cytochrome C (Cyt C) in BSA, 20 µl of a sample (compound) and 50 µl of PMN were stirred at 37°C. After adding 50 µl of PMA to a final concentration of 125 ng/ml, the change of Cyt C reduction was traced by an absorption at 550 nm. The number of PMN per tube was 2 x 10^6 cells.

[4] = test system: liver of the carbon tetrachloride-treated rat; experiment: Lipid peroxide in the liver of carbon tetrachloride-treated rat, oral administration; type: in vivo; settings: 24 hours after CCl4
Experimental: The lipid peroxide in the liver of the rat treated with CC14 increases. Carbon tetrachloride of 25 % V/V in olive oil was administered orally to rats by the dose of 2 ml/kg. After 24 hours, the amount of the lipid peroxide in the liver of the carbon tetrachloride-treated rat was increased to approx. 6 times higher than untreated rat. The amount of the lipid peroxide was determined by the method of Mihara et al. as in Example 3 and was expressed in terms of MDA amount (nmol) in 1 g of liver. The activity of compound No. 1 and vitamin E to inhibit the formation of the lipid peroxide was measured. Compound No. 1 was orally administered to the carbon tetrachloride-treated rat in the form of suspension in the surfactant "Tween 80" by the amount of 25, 50 or 100 mg/kg/day nine days before the treatment of carbon tetrachloride.

[5] = test system: rat liver microsome; experiment: Formation of lipid peroxide in vitro in rat liver microsome (TBA method); type: biochemical
Experimental: Lipid peroxide was produced in vitro by using rat liver microsome. The microsome was prepared in a usual method from rat starved for 24 hours, and the final concentration thereof was adjusted to 15 - 18 mg proteins/ml.
To the thus prepared microsome was added Fe(N03)3, ADP (adenosine diphosphate), NADPH (nicotinamide adenine dinucleotide phosphate), glucose 6-phosphate and glucose 6-phosphate dehydrogenase so that the final concentrations of these additives were 200 uM, 7 mM, 7.5 mM, 20 mM and 2.0 U.I., respectively.
The resultant mixture was incubated at 37°C to produce the lipid peroxide. The activity of compound No. 1 and vitamin E to inhibit the formation of the lipid peroxide was measured. The quantity of the lipid peroxide was determined in accordance with TBA method (thiobarbiturate method, "Biochemical Medicine", Vol. 15, p. 212 (1976)) and expressed in terms of MDA (malon dialdehyde) amount (nmol) in 1 mg of protein.

[6] = test system: patients suffering from chronic hepatitis; experiment: Clinical investigation in chronic hepatitis, oral administration for 8 weeks after every diet; type: in vivo; settings: for improvement of liver functions (patients): 8 weeks
Experimental: To patients suffering from chronic hepatitis tritoqualine was administered orally for 8 weeks continuously in a daily dose of 150 or 300 mg after every diet.
Glutamate oxaloacetate transaminase (GOT) and glutamate pyruvate transaminase (GPT) were measured just before the first administration, and 4 and 8 weeks after the first administration.
During the above investigations, there were few cases where slight side effects such as dizziness and nausea, which were suspected to have a relation with the administered drug, appeared : in one case among 65 cases administered in a dose of 150 mg, i.e. 1.5 %; and 8 cases among 137 cases in a dose of 300 mg, i.e. 5.8 %.
When tritoqualine was administered in a dose of 600 mg in the same manner as described above, side effects appeared in 24 cases among 164 cases, i.e. 14.6 %.

[7] = Plasma concentration (AUC) after oral administration to beagle dogs, after fast or after diet; type: in vivo; settings: male, dog, 200 mg/kg, 30 minutes after diet, dogs No. 1-5 and mean in last row, read-out: AUC of tritoqualine concentration in blood for 5 hours
Experimental: Tritoqualine was orally administered to male beagle dogs, […], body weight of 9.5 - 12 kg, Hazleton, after fast or 30 minutes after diet in a dose of 200 mg/kg.
Tritoqualine had been subjected to micronization by a jet mill PJM-100NP, NIHON NEWMATIC KOGYO KK, JAPAN (10 % or more of 3 microns or less, 80 % of 3-15 microns and 10 % or less of 15 microns or more; average of 7 microns) or a screen of 100 mesh under. The obtained particles were suspended in aqueous 1 % Tween 80 solution before use. […]
Before the administration, and 0.5, 1, 2, 3 and 5 hours after the administration, 1 ml of blood was taken out of the vein of front leg, placed into a BHA-coated centrifugal tube "VENOJECT" containing heparin, TERMO INC., and centrifuged. Hundred microliters of the thus obtained plasma was placed into a small glass test tube, which had been coated with 1 microgram of BHA. Into the tube were added 190 microliters of noscapine (100 micrograms in ml of acetonitrile) as an internal standard and 10 microliters of acetonitrile. After blending for one minute, the mixture was centrifuged at 3,000 rpm for 5 minutes. The resulting supernatant was subjected to HPLC under the conditions described below.
The quantitative measurements of tritoqualine in the plasma were carried out according to the internal standard method. The area under curve (AUC) was calculated by the trapezoidal rule. […]

[8] = test system: patients with chronic active hepatitis; settings: daily dosages 600 to 1600 mg, 13 patients; particularly at 1200-1600 mg/day; cited from earlier work
[9] = 10 µM, Incubation Period 10 min
[10] = 100 µM, Incubation Period 5 min
[11] = 100 µM, Incubation Period 10 min

IC50 [3]: 15.9 µM
Compound: CCOc1c(N)c2c(c(OCC)c1OCC)C(C1c3c(cc4c(c3OC)OCO4)CCN1C)OC2=O (stereo not drawn) [Compound No. 1, 7-amino-4,5,6-triethoxy-3-(5,6,7,8-tetrahydro-4-methoxy-6-methyl-1,3-dioxolo(4,5-g)isoquinolin-5-yl)phthalide]
inhibiting activity to the histamine release [1]: strong inhibiting activity | inhibition at 10 µM [2]: 77.3% | inhibition at 3.3 µM [3]: 15.4% | inhibition at 10 µM [3]: 53.9% | inhibition at 33 µM [3]: 58.8% | MDA Amount Produced ([4]; 25 mg/kg oral): 333.0 ± 54.3 nmol/g of liver | MDA Amount Produced ([4]; 50 mg/kg oral): 328.5 ± 50.8 nmol/g of liver | MDA Amount Produced ([4]; 100 mg/kg oral): 171.0 ± 23.6 nmol/g of liver | MDA Amount Produced ([5]; 3.3 µM, Incubation Period 5 min): 1.80 ± 0.12 nmol/mg of protein | MDA Amount Produced ([5]; 3.3 µM, Incubation Period 10 min): 2.25 ± 0.21 nmol/mg of protein | MDA Amount Produced ([5]; 10 µM, Incubation Period 5 min): 1.71 ± 0.12 nmol/mg of protein | MDA Amount Produced [5, 9]: 1.80 ± 0.06 nmol/mg of protein | MDA Amount Produced ([5]; 33 µM, Incubation Period 5 min): 1.50 ± 0.05 nmol/mg of protein | MDA Amount Produced ([5]; 33 µM, Incubation Period 10 min): 1.62 ± 0.02 nmol/mg of protein | MDA Amount Produced [5, 10]: 1.37 ± 0.02 nmol/mg of protein | MDA Amount Produced [5, 11]: 1.37 ± 0.05 nmol/mg of protein

Compound: COc1ccc2c(c1OC)C(=O)OC2C1c2c(cc3c(c2OC)OCO3)CCN1C (stereo not drawn) [compound 2]
inhibition at 10 µM [2]: 42.4%

IC50 [3]: 7.2 µM
Compound: CCOc1c(N)c2c(c(OCC)c1OCC)C(C1c3c(cc(OC)c4c3OCO4)CCN1C)OC2=O (stereo not drawn) [compound 3]
inhibiting activity to the histamine release [1]: strong inhibiting activity | inhibition at 10 µM [2]: 76.9% | inhibition at 3.3 µM [3]: 34.9% | inhibition at 10 µM [3]: 59.9% | inhibition at 33 µM [3]: 66.2%

Compound: CCOc1c(OCC)c2c(c([N+](=O)[O-])c1OCC)C(=O)OC2C1c2c(cc3c(c2OC)OCO3)CCN1C (stereo not drawn) [compound 4]
inhibition at 10 µM [2]: 28.6%

IC50 [3]: 1.8 µM
Compound: CCOc1c(N)c2c(c(OCC)c1OCC)C(C1c3c(cc4c(c3OC)OCO4)CCN1CC)OC2=O (stereo not drawn) [compound 5, 2-ethyl-6,7-methylenedioxy-8-methoxy-1-(4,5,6-triethxy-7-amino-3-phthalidyl)-1,2,3,4-tetrahydroisoquinoline]
inhibition at 10 µM [2]: 68.6% | inhibition at 3.3 µM [3]: 49.2% | inhibition at 10 µM [3]: 65.8% | inhibition at 33 µM [3]: 60.3%

IC50 [3]: 45.1 µM
Compound: CCOc1c(N)c2c(c(OCC)c1OCC)C(C1c3cc(OC)c(OC)cc3CCN1C)OC2=O (stereo not drawn) [compound 6]
inhibition at 10 µM [2]: 47.6% | inhibition at 3.3 µM [3]: 0.9% | inhibition at 10 µM [3]: 14% | inhibition at 33 µM [3]: 41.1%

AUC ([7]; 100 mesh under 200 mg/kg oral): 187 ng·h/mL | AUC ([7]; Micronisation 200 mg/kg oral): 674 ng·h/mL
Compound: CCOc1c(N)c2c(c(OCC)c1OCC)C(C1c3c(cc4c(c3OC)OCO4)CCN1C)OC2=O (stereo not drawn) [tritoqualine, 7-amino-4,5,6-triethoxy-3-(5,6,7,8-tetrahydro-4-methoxy-6-methyl-1,3-dioxolo(4,5-g)isoquinolin-5-yl)phthalide]
improvement of liver functions (patients) ([6]; daily dose 150 mg oral, 27 among 62 patients): 44.3% | improvement of liver functions (patients) ([6]; daily dose 300 mg oral, 79 among 135 patients): 61.2% | side effects such as dizziness and nausea (cases) ([6]; dose of 150 mg, one case among 65 cases): 1.5% | side effects such as dizziness and nausea (cases) ([6]; dose of 300 mg, 8 cases among 137 cases): 5.8% | side effects (cases) ([6]; dose of 600 mg, 24 cases among 164 cases): 14.6% | fibrosis with cellular infiltration on biopsied liver specimens [8]: reduction of fibrosis | liver functions [8]: marked improvement

Compound: Vitamin E [reference compound]
Free MDA (3 hours) % Inhibition [2]: 13% | MDA Amount Produced ([4]; 50 mg/kg oral): 104.0 ± 18.4 nmol/g of liver | MDA Amount Produced [5, 9]: 2.37 ± 0.21 nmol/mg of protein | MDA Amount Produced [5, 10]: 2.06 ± 0.001 nmol/mg of protein | MDA Amount Produced [5, 11]: 2.62 ± 0.07 nmol/mg of protein | MDA Amount Produced ([5]; 1000 µM, Incubation Period 5 min): 2.06 ± 0.016 nmol/mg of protein | MDA Amount Produced ([5]; 1000 µM, Incubation Period 10 min): 2.29 ± 0.14 nmol/mg of protein
